Measured values as given in ChEMBL document CHEMBL3044537, “Radiolabeling of EGCG with 131I and biodistribution in rats” (Med Chem Res, 2012).

Legend:
[1] = Octanol-water partition coefficient of the compound; type: physicochemical; settings: read-out: log KOW
[2] = Metabolic stability in Homo sapiens (human) serum at 4 hr; type: ADME; settings: read-out: Stability
Stomach [3] = test: Biodistribution in Rattus norvegicus Wistar albino (rat) stomach at 74 MBq/umol, iv after 60 min; type: ADME, organism-based; settings: in vivo, 1 h
Large intestine [4] = test: Biodistribution in Rattus norvegicus Wistar albino (rat) large intestine at 74 MBq/umol, iv measured at 60 min; type: ADME, organism-based; settings: in vivo, 1 h
Small intestine [5] = test: Biodistribution in Rattus norvegicus Wistar albino (rat) small intestine at 74 MBq/umol, iv after 60 min; type: ADME, organism-based; settings: in vivo, 1 h
[6] = Metabolic stability in Homo sapiens (human) serum at 3 hr; type: ADME; settings: read-out: Stability
Large intestine [7] = test: Biodistribution in Rattus norvegicus Wistar albino (rat) large intestine at 74 MBq/umol, iv after 60 min; type: ADME, organism-based; settings: in vivo, 1 h
Stomach [8] = test: Biodistribution in Rattus norvegicus Wistar albino (rat) stomach at 74 MBq/umol, iv measured at 60 min; type: ADME, organism-based; settings: in vivo, 1 h
Kidney [9] = test: Biodistribution in Rattus norvegicus Wistar albino (rat) kidney at 74 MBq/umol, iv after 60 min; type: ADME, organism-based; settings: in vivo, 1 h
[10] = Biodistribution in Rattus norvegicus Wistar albino (rat) lung at 74 MBq/umol, iv administered 60 min post dose of non radiolabelled compound measured at 60 min; type: ADME, organism-based; settings: read-out: Drug uptake
Liver [11] = test: Biodistribution in Rattus norvegicus Wistar albino (rat) liver at 74 MBq/umol, iv after 60 min; type: ADME, organism-based; settings: in vivo, 1 h
Kidney [12] = test: Biodistribution in Rattus norvegicus Wistar albino (rat) kidney at 74 MBq/umol, iv measured at 60 min; type: ADME, organism-based; settings: in vivo, 1 h
[13] = Metabolic stability in Homo sapiens (human) serum at 24 hr; type: ADME; settings: read-out: Stability
[14] = Metabolic stability in Homo sapiens (human) serum at 2 hr; type: ADME; settings: read-out: Stability
Lung [15] = test: Biodistribution in Rattus norvegicus Wistar albino (rat) lung at 74 MBq/umol, iv administered 60 min post dose of non radiolabelled compound measured at 150 min; type: ADME, organism-based; settings: in vivo, 2.5 h
[16] = Biodistribution in Rattus norvegicus Wistar albino (rat) lung at 74 MBq/umol, iv administered 60 min post dose of non radiolabelled compound measured at 30 min; type: ADME, organism-based; settings: read-out: Drug uptake
Pancreas = test: Biodistribution in Rattus norvegicus Wistar albino (rat) pancreas at 74 MBq/umol, iv measured at 30 min; type: ADME, organism-based; settings: in vivo, 0.5 h
Small intestine [17] = test: Biodistribution in Rattus norvegicus Wistar albino (rat) small intestine at 74 MBq/umol, iv measured at 60 min; type: ADME, organism-based; settings: in vivo, 1 h
Lung [18] = test: Biodistribution in Rattus norvegicus Wistar albino (rat) lung at 74 MBq/umol, iv measured at 30 min; type: ADME, organism-based; settings: in vivo, 0.5 h
[19] = Ratio of drug uptake in Rattus norvegicus Wistar albino (rat) lung to blood at 74 MBq/umol, iv measured at 30 min; type: ADME, organism-based
Rattus norvegicus = test: Ratio of drug uptake in Rattus norvegicus Wistar albino (rat) lung to muscle at 74 MBq/umol, iv measured at 30 min; settings: in vivo, 0.5 h
Liver [20] = test: Biodistribution in Rattus norvegicus Wistar albino (rat) liver at 74 MBq/umol, iv measured at 60 min; type: ADME, organism-based; settings: in vivo, 1 h

logP [1]: 1.46
remaining at 4 h [2]: 84%
Drug uptake (Stomach [3]): Not Active
Drug uptake (Large intestine [4]): 1.04 % ID/g
Drug uptake (Small intestine [5]): Not Active
remaining at 3 h [6]: 86%
Drug uptake (Large intestine [7]): Not Active
Drug uptake (Stomach [8]): 2.76 % ID/g
Drug uptake (Kidney [9]): Not Active
tissue uptake at 1 h [10]: 0.23 %ID/g
Drug uptake (Liver [11]): Not Active
Drug uptake (Kidney [12]): 0.37 % ID/g
remaining at 24 h [13]: 83%
remaining at 2 h [14]: 87%
Drug uptake (Lung [15]): 0.22 % ID/g
tissue uptake at 0.5 h [16]: 0.25 %ID/g
Drug uptake (Pancreas): 0.32 % ID/g
Drug uptake (Small intestine [17]): 0.71 % ID/g
Drug uptake (Lung [18]): 0.45 % ID/g
Kp at 0.5 h [19]: 0.96
Ratio (Rattus norvegicus): 2.69
Drug uptake (Liver [20]): 0.23 % ID/g
SMILES: O=C(O[C@@H]1Cc2c(cc(O)c([131I])c2O)O[C@@H]1c1cc(O)c(O)c(O)c1)c1cc(O)c(O)c(O)c1 [[131I]-EPIGALLOCATECHIN GALLATE]
